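Where inhibition never reached the appropriate level, the endpoint shown equals the highest concentration tested. Otherwise, values were interpolated linearly from a five-concentration, 48-hour dose response in 96-well plates. The concentration for 50% growth inhibition is given as GI50.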 Calls of active or inactive are those of the source. Rule as the data show it: active = GI50 up to about 1.1 µM and inactive = higher. Where only a bound is given, the exact number is not on record here.

Some test systems named below: SR; OVCAR-5; LOX IMVI; OVCAR-4; CCRF-CEM; A498; HCT-15; A549; HCT-116; SF-268; SK-MEL-5; OVCAR-3; M14; RPMI-8226; HT-29; EKVX; SF-295.
Holding throughout (assay): inhibition of tumour cell growth, NCI panel, 48 h

In the case of `C/C(CN1C(=O)c2ccccc2C1=O)=N\NS(=O)(=O)c1ccc(F)cc1`, the GI50 in the test on SR, in the test on OVCAR-5, in the test on LOX IMVI, in the test with OVCAR-4, in the test on CCRF-CEM and in the test on A498 was > 100 µM (inactive) each time. For the same compound, the GI50 with HCT-15 is more than 100 µM; in the test with A549 it was > 100 µM (inactive); with HCT-116, > 100 µM (inactive); with SF-268 it was > 100 µM (inactive); with SK-MEL-5, > 100 µM (inactive); with OVCAR-3, > 100 µM (inactive). The GI50 in the test on M14, in the test on RPMI-8226, in the test with HT-29, with EKVX and in the test with SF-295 was > 100 µM (inactive) in each case.

Consider `O=C(NCCS(=O)(=O)N1C(=O)C2CCCN2C(=O)[C@@H]1Cc1ccccc1)OCc1ccccc1` (some centres undefined), for which the GI50 with SR was 57.1 µM (inactive); in the test on OVCAR-5, 70.3 µM (inactive); in the test on LOX IMVI, 50.6 µM (inactive); with OVCAR-4, 36.7 µM (inactive); with CCRF-CEM it was 45.4 µM (inactive); in the test with A498 it was 25.3 µM (inactive). Moreover, the GI50 is 51.8 µM with HCT-15; 41.1 µM (inactive) in the test with A549; 39.5 µM (inactive) in the test on HCT-116; 45.6 µM (inactive) in the test on SF-268; 47.4 µM (inactive) in the test on SK-MEL-5; 33.5 µM (inactive) in the test with OVCAR-3. For the same compound, the GI50 in the test with M14 was 36 µM (inactive); in the test with RPMI-8226 it was 23.3 µM (inactive); in the test with HT-29, 42.8 µM (inactive); in the test with EKVX, 40.9 µM (inactive); in the test with SF-295, 50 µM (inactive).

Regarding `CC(C)(C)OC1=C(OC(C)(C)C)C(O)(c2ccc(Cl)cc2)C1=O` (centres undefined), the GI50 in the test with SR, in the test on OVCAR-5, with LOX IMVI, with OVCAR-4, in the test on CCRF-CEM and in the test on A498 was > 100 µM (inactive) in each case. The GI50 was more than 100 µM in the test with HCT-15; > 100 µM (inactive) in the test with A549; > 100 µM (inactive) in the test with SF-268; > 100 µM (inactive) in the test on SK-MEL-5; > 100 µM (inactive) in the test with OVCAR-3; > 100 µM (inactive) in the test on M14. In addition, the GI50 with RPMI-8226, with HT-29, in the test on EKVX and in the test with SF-295 was > 100 µM (inactive) throughout.

On to `O=C1CC2C(=O)N(Cc3ccccc3)C1C=C2S(=O)(=O)c1ccccc1` (centres undefined), for which the GI50 in the test with SR, with LOX IMVI, in the test with OVCAR-4, with CCRF-CEM, in the test on A498 and with A549 was > 100 µM (inactive) each time. Also, the GI50 in the test on HCT-116, with SF-268, in the test on SK-MEL-5, in the test on OVCAR-3, in the test with M14 and in the test with HT-29 was > 100 µM (inactive) in each case. In addition, the GI50 in the test on EKVX and with SF-295 was > 100 µM (inactive) each time.

With `CNS(=O)(=O)NNS(=O)(=O)c1ccc(Cl)cc1`, the GI50 in the test on SR, in the test on OVCAR-5, in the test on OVCAR-4, in the test with CCRF-CEM, in the test with A498 and with A549 was > 100 µM (inactive) in each case. The GI50 in the test on HCT-116, with SF-268, with SK-MEL-5, with OVCAR-3, with M14 and in the test on RPMI-8226 was > 100 µM (inactive) each time. Moreover, the GI50 in the test with HT-29, with EKVX and with SF-295 was > 100 µM (inactive) each time.

As for `CC(C)N(C(=O)C12C3C4C1C1C2C3C41C#N)C(C)C` (centres undefined), the GI50 was 20.2 µM (inactive) with SR; > 100 µM (inactive) in the test with OVCAR-5; > 47.1 µM (inactive) with LOX IMVI; > 100 µM (inactive) in the test with OVCAR-4; > 50 µM (inactive) in the test on CCRF-CEM; > 100 µM (inactive) with A498. The GI50 in the test on HCT-15 was more than 72.8 µM; in the test with A549, > 100 µM (inactive); in the test on HCT-116, > 100 µM (inactive); in the test on SF-268, > 100 µM (inactive); in the test on SK-MEL-5, > 100 µM (inactive); in the test with OVCAR-3 it was > 100 µM (inactive). Besides, the GI50 in the test on M14 is > 100 µM (inactive); in the test on RPMI-8226 it was > 46.7 µM (inactive); in the test on HT-29, > 100 µM (inactive); in the test with EKVX, > 100 µM (inactive); in the test on SF-295 it was > 100 µM (inactive).

With `NNC(=S)N/N=C(/C(=O)Nc1cc(Cl)ccc1Cl)C1C(=O)Nc2ccccc2[S+]1[O-]` (centres undefined), the GI50 was 94.2 µM (inactive) in the test with SR; > 100 µM (inactive) in the test with OVCAR-5; > 100 µM (inactive) in the test with LOX IMVI; > 100 µM (inactive) in the test on OVCAR-4; > 100 µM (inactive) in the test with CCRF-CEM; > 100 µM (inactive) in the test on A498. The GI50 was more than 100 µM in the test on HCT-15; 73.3 µM (inactive) with A549; > 100 µM (inactive) in the test on HCT-116; > 100 µM (inactive) in the test with SF-268; > 100 µM (inactive) in the test with SK-MEL-5; > 100 µM (inactive) in the test with OVCAR-3. Moreover, the GI50 with M14 is > 100 µM (inactive); in the test on HT-29, > 100 µM (inactive); with EKVX, 55.1 µM (inactive); with SF-295, > 100 µM (inactive).

Consider `Cc1cccc(C)c1NC(=O)CCCC(=O)C1/C(=N/NC(=O)CC#N)CCC/C1=N\NC(=O)CC#N` (centres undefined), for which the GI50 in the test with SR was > 100 µM (inactive); with OVCAR-5 it was > 100 µM (inactive); in the test with OVCAR-4, > 100 µM (inactive); with CCRF-CEM it was > 100 µM (inactive); with A498 it was > 100 µM (inactive); in the test on HCT-15, more than 100 µM. For the same compound, the GI50 with A549, in the test with HCT-116, with SF-268, in the test with SK-MEL-5, in the test with OVCAR-3 and in the test on M14 was > 100 µM (inactive) in each case. Also, the GI50 in the test on RPMI-8226, in the test with HT-29, in the test on EKVX and in the test with SF-295 was > 100 µM (inactive) throughout.

For `C[C@H]1CCC2C(CN3CCCCC3)C(=O)OC2[C@]2(C)C(=O)CC(N3CCCCC3)C12O` (some centres undefined), the GI50 was 2.49 µM (inactive) with SR; 10.7 µM (inactive) in the test with OVCAR-5; 2.34 µM (inactive) in the test with CCRF-CEM; 4.12 µM (inactive) in the test on A498; 28.2 µM (inactive) with A549; 2.94 µM (inactive) in the test with HCT-116. Moreover, the GI50 in the test with SF-268 was 6.95 µM (inactive); in the test with SK-MEL-5, 4.73 µM (inactive); with OVCAR-3, 4.48 µM (inactive); with RPMI-8226 it was 2.71 µM (inactive); with HT-29, 3.9 µM (inactive); in the test with EKVX it was 4 µM (inactive). Besides, the GI50 with SF-295 was 9.1 µM (inactive).

In the case of `CN(C)c1c([O-])c(=[N+](C)C)c1=O`, the GI50 in the test with SR is > 100 µM (inactive); in the test with OVCAR-5, > 100 µM (inactive); in the test with LOX IMVI, > 100 µM (inactive); in the test with CCRF-CEM it was > 100 µM (inactive); in the test on A498, > 100 µM (inactive); in the test on HCT-15, more than 100 µM. Further, the GI50 in the test with A549, in the test with HCT-116, with SF-268, in the test on OVCAR-3, with M14 and in the test with HT-29 was > 100 µM (inactive) each time. The GI50 with EKVX and in the test on SF-295 was > 100 µM (inactive) each time.

For `C=C1C[C@]23CCC4C(C)(C)C(=O)CC[C@]4(C)C2C[C@H]1C(O)C3=O` (some centres undefined), the GI50 in the test with SR is > 75 µM (inactive); in the test with LOX IMVI, > 75 µM (inactive); in the test on OVCAR-4, > 75 µM (inactive); in the test on CCRF-CEM, > 75 µM (inactive); in the test on A498, > 75 µM (inactive); in the test on HCT-15 it was more than 75 µM. Also, the GI50 in the test on A549, with SF-268, with SK-MEL-5, with OVCAR-3, in the test with M14 and in the test on RPMI-8226 was > 75 µM (inactive) throughout. Moreover, the GI50 in the test on EKVX and with SF-295 was > 75 µM (inactive) throughout.

`CCOC(=O)Cc1csc(Nc2ccc(OCC)cc2)n1`: the GI50 in the test on SR was 73.8 µM (inactive); in the test on OVCAR-4, > 100 µM (inactive); in the test with A498, > 100 µM (inactive); in the test on HCT-15, more than 100 µM; in the test with A549, > 100 µM (inactive); with HCT-116, > 100 µM (inactive). For the same compound, the GI50 in the test on SF-268 was > 100 µM (inactive); in the test with OVCAR-3 it was 86.3 µM (inactive); in the test with RPMI-8226, > 100 µM (inactive); in the test on HT-29, > 100 µM (inactive); in the test with EKVX, > 100 µM (inactive); in the test on SF-295, > 100 µM (inactive).

On to `Cc1cc2c3ccccc3n(C)c2c2c1C(=O)c1ccccc1C2=O`, for which the GI50 is 6.24 µM (inactive) with SR; 17.8 µM (inactive) with OVCAR-4; 5.18 µM (inactive) in the test on CCRF-CEM; 25.6 µM (inactive) with A498; 21.3 µM (inactive) in the test with A549; 14.8 µM (inactive) in the test with HCT-116. Also, the GI50 in the test with SF-268 was 25 µM (inactive); in the test with OVCAR-3, 13.4 µM (inactive); in the test with M14, 19.1 µM (inactive); in the test with RPMI-8226, 6.3 µM (inactive); with HT-29 it was 24.9 µM (inactive); in the test on EKVX it was 24.3 µM (inactive). For the same compound, in the test on SF-295, the GI50 is 13.6 µM (inactive).

(Values after ChEMBL document CHEMBL1201862, “PubChem BioAssay data set” (2004).)
